Measurements reported in paper PMC9820646, “Identification and Pharmacological Characterization of Two Serotonin Type 7 Receptor Isoforms from Mythimna separata” (International Journal of Molecular Sciences, 2022).
Counter-ions that a name gives are not always drawn. Like-named read-outs stand apart in the source and are kept apart here.

What was measured:
Msep5-HT7S receptor [1] = target: T1, Msep5-HT7S receptor (Mythimna separata, UniProt A0AAD7YHG5, DEL320-414); assay: cAMP assay, antagonist block of 5-HT-induced response in HEK293 cells expressing Msep5-HT7S; assay type: cell-based; conditions: for inhibition at 40 µM: HEK293, read-out: decrease of 5-HT induced response
Experimental: (§1) HEK-293 cells were cultured in D-MEM (Gibco BRL, Gaithersburg, MD, USA) supplemented with 10% FBS (Gibco BRL, Gaithersburg, MD, USA) at 37 °C and 5% CO2. Four microgram recombinant plasmids with 10 μL of lipofectamine 2000 (Invitrogen, Carlsbad, CA, USA) were introduced into exponentially growing HEK 293 cells. The 0.8 mg/mL antibiotic G418 (Sigma, St. Louis, MO, USA) was added to the medium to select for cells that were stably expressed the Msep5-HT7 receptors. After fourteen days of G418 selection, three G418-resistant colonies were trypsinized in cloning cylinders and transferred to 12-well plastic plates for expansion.
(§2) Intracellular cAMP concentrations were measured as previously described. Briefly, when cells were cultured for 2 days to the concentration of 1 × 10^6 cells/mL, culture media were removed and the cells were washed two times with cold PBS (pH 7.4), then the cells were preincubated in 450 μL of Dulbecco’s phosphate-buffered solution (DPBS) containing 100 μM phosphodiesterase inhibitor 3-isobutyl-1-methylxanthine (IBMX) for 20 min at room temperature. After the preincubation, 50 μL of DPBS, containing various concentrations of reagents, was added into the stable transfected cells for incubation for 30 min at 37 °C. The cells were washed three times with cold PBS (pH 7.4) and then lysed in 250 μL of cold cell lysis buffer by re-freezing. The cell debris was removed by centrifugation at 600× g for 10 min at 4 °C. The amount of intracellular cAMP extracted from harvested supernatant was determined using an ELISA reagent (R&D Systems, Minneapolis, MN, USA). Each measurement was performed in duplicate, and three independent assays were carried out for each reagent and concentration tested.

Msep5-HT7L receptor [2] = target: T2, Msep5-HT7L receptor (Mythimna separata, UniProt A0AAD7YHG5); assay: cAMP assay, antagonist block of 5-HT-induced response in HEK293 cells expressing Msep5-HT7L; assay type: cell-based; conditions: against 5 μM 5-HT
Experimental: as §1, §2

Msep5-HT7L receptor [3] = assay: as above; assay type: cell-based; conditions: for decrease of 5-HT induced response: 40 μM antagonist (8-fold) with 5 μM 5-HT, range stated for all antagonists and both isoforms; for antagonist potency or efficacy, Msep5-HT7L compared with Msep5-HT7S: inhibition of 5-HT-induced cAMP production, based on 95% fiducial limits
Experimental: as §1, §2

5-HT7 receptor [4] = conditions: 5-HT7 receptor from T. castaneum; ref [36]; cited from earlier work
Msep5-HT7L receptor [5] = target: T2, Msep5-HT7L receptor; assay: cAMP assay, agonist activation of Msep5-HT7L in stably transfected HEK293 cells; assay type: cell-based; parameters: Emax: dose or concentration left out as unconfirmed; conditions: for effect on intracellular cAMP levels: 10 μM, HEK293 cells expressing Msep5-HT7L; for Emax: HEK293, read-out: activation compared with maximum cAMP stimulation by same concentration of 5-HT
Experimental: as §1, §2

Msep5-HT7S receptor [6] = target: T1, Msep5-HT7S receptor; assay: cell-based; assay type: cell-based; parameters: Emax: dose or concentration left out as unconfirmed; conditions: for Emax: HEK293, read-out: activation compared with maximum cAMP stimulation by 5-HT; for fold higher agonist potency against Msep5-HT7S than Msep5-HT7L: ratio of EC50 values
Experimental: as §1, §2

Msep5-HT7L receptor [7] = assay: cAMP assay, agonist activation of Msep5-HT7L in stably transfected HEK293 cells; assay type: cell-based, Mythimna separata; parameters: Emax: dose or concentration left out as unconfirmed; conditions: ratio of EC50 values
Experimental: as §1, §2

5-HT1 receptor = target: 5-HT1 receptor; parameters: method as in PMID 23741451, PMID 16945110; conditions: 5-HT1 receptor from T. castaneum; ref [17],[27]; cited from earlier work
5-HT7 receptor [8] = conditions: 5-HT7 receptor from A. mellifera; ref [17],[27]; cited from earlier work
5-HT7 receptor [9] = assay: literature pharmacology of C. vicina 5-HT7 receptor; conditions: 5-HT7 receptor from C. vicina vs the two Msep5-HT7 isoforms
5-HT7 receptor [10] = conditions: 5-HT7 receptor from C. vicina; ref [28],[36],[46]; cited from earlier work
5-HT7 receptor [11] = conditions: 5-HT7 receptor from T. castaneum vs the two Msep5-HT7 isoforms
[12] = test system: larvae of Mythimna separata; parameters: method as in PMID 20000410; conditions: ref [22]; cited from earlier work
[13] = 10 μM, HEK293 cells expressing Msep5-HT7S
[14] = EC50, 5-HT7L, cAMP production, HEK-293 cells
[15] = logEC50 (Mean ± SEM), 5-HT7L, cAMP production, HEK-293 cells, given as negative log value
[16] = EC50, 5-HT7S, cAMP production, HEK-293 cells
[17] = logEC50 (Mean ± SEM), 5-HT7S, cAMP production, HEK-293 cells, given as negative log value
[18] = IC50, 5-HT7S, against 5 μM 5-HT, HEK-293 cells
[19] = logIC50 (Mean ± SEM), 5-HT7S, against 5 μM 5-HT, given as negative log value
[20] = logIC50 (Mean ± SEM), 5-HT7L, given as negative log value

T1 sequence (A0AAD7YHG5 entry or part of it DEL320-414): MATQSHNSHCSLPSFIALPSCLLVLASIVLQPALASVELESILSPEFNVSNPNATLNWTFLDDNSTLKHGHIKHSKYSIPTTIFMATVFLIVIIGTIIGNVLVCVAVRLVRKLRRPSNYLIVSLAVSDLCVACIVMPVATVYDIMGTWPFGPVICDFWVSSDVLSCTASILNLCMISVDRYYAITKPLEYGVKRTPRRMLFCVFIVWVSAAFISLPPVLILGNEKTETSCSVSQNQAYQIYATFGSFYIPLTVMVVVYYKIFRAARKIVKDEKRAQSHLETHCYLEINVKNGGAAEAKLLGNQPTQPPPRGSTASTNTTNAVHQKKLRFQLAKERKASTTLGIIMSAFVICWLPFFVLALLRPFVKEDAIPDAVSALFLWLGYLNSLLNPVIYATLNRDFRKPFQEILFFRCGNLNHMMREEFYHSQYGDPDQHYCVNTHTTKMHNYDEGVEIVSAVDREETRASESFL
T2 sequence (A0AAD7YHG5 entry or part of it): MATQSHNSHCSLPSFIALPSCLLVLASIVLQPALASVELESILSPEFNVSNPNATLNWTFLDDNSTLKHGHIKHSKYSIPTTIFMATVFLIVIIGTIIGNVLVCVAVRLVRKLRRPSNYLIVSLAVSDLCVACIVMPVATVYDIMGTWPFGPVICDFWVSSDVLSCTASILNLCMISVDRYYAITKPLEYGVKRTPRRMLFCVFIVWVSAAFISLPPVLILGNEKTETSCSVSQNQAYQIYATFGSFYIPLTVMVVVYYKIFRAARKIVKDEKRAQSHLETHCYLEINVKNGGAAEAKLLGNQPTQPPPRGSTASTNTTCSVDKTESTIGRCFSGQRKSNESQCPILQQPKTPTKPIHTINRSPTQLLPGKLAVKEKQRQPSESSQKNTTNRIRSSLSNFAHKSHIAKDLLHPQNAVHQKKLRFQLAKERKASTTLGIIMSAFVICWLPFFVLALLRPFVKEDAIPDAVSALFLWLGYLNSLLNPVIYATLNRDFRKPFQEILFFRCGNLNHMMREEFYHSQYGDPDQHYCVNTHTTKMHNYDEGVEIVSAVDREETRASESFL

Compound | decrease of 5-HT induced response (Msep5-HT7L receptor [3]) | antagonist potency or efficacy, Msep5-HT7L compared with Msep5-HT7S (Msep5-HT7L receptor [3]) | effect on intracellular cAMP levels (Msep5-HT7L receptor [5]) | effect on intracellular cAMP levels (Msep5-HT7S receptor [6]; [13]) | inhibition at 40 µM (Msep5-HT7S receptor [1]) | IC50 (Msep5-HT7S receptor [1]; [18]) | IC50 (Msep5-HT7S receptor [1]; [19]) | IC50 (Msep5-HT7L receptor [2]; IC50, 5-HT7L, HEK-293 cells) | IC50 (Msep5-HT7L receptor [2]; [20]) | other results
COc1ccccc1N1CCN(CCN(C(=O)C2CCCCC2)c2ccccn2)CC1 [WAY-100635] | 33–60% | higher antagonistic activity | – | – | – | – | – | – | – | IC50 (Msep5-HT7S receptor [1]; 5-HT7S, against 5 μM 5-HT, HEK-293 cells, read-out: IC50): 70.3 µM; logIC50 (Mean ± SEM) (Msep5-HT7S receptor [1]; 5-HT7S, against 5 μM 5-HT, given as negative log value): −4.15 ± 0.02; IC50 (Msep5-HT7L receptor [2]; 5-HT7L, HEK-293 cells, read-out: IC50): 36.1 µM; logIC50 (Mean ± SEM) (Msep5-HT7L receptor [2]; 5-HT7L, given as negative log value): −4.44 ± 0.04; IC50 (5-HT7 receptor [4]): 76.8 µM
NCCc1c[nH]c2ccc(O)cc12 [5-HT, serotonin hydrochloride] | – | – | significantly increased cAMP levels | significantly increased cAMP levels | – | – | – | – | – | –
NCC(O)c1ccc(O)cc1 (racemic) [octopamine, (±)-octopamine hydrochloride] | – | – | only 5-HT significantly increased cAMP levels | only 5-HT significantly increased cAMP levels | – | – | – | – | – | –
COc1ccc2[nH]cc(CCN)c2c1 [5-MT, 5-methoxytryptamine] | – | – | activated | only αm-5-HT significantly increased cAMP levels | – | – | – | – | – | EC50 (Msep5-HT7L receptor [5]; [14]): 20.9 µM; Emax (Msep5-HT7L receptor [5]): ~69%; EC50 (Msep5-HT7L receptor [5]; [15]): 20.9 µM; efficacy fold lower than 5-HT (5-HT7 receptor [4]): about 2 fold; potency fold lower than 5-HT (5-HT7 receptor [4]): more than 190 fold; EC50 (Msep5-HT7S receptor [6]; [16]): 19.4 µM; Emax (Msep5-HT7S receptor [6]): ~35%; EC50 (Msep5-HT7S receptor [6]; [17]): 19.5 µM; fold higher agonist potency against Msep5-HT7S than Msep5-HT7L (Msep5-HT7S receptor [6]): roughly equivalent
NCCc1ccc(O)cc1 [tyramine, tyramine hydrochloride] | – | – | only 5-HT significantly increased cAMP levels | only 5-HT significantly increased cAMP levels | – | – | – | – | – | –
Cc1cccc(S(=O)(=O)N(C)[C@H](C)CCN2CCC(C)CC2)c1 [SB-258719] | 33–60% | no significant differences | – | – | 33 to 60% | 64 µM | 64.6 µM | 55.3 µM | 55 µM | –
CC(N)Cc1c[nH]c2ccc(O)cc12.O=C(O)/C=C\C(=O)O (stereo not drawn) [αm-5-HT, α-methylserotonin maleate] | – | – | activated | significantly increased cAMP levels | – | – | – | – | – | logEC50 (Mean ± SEM) (Msep5-HT7L receptor [5]; 5-HT7L, cAMP production, HEK-293 cells, given as negative log value): −4.86 ± 0.04; EC50 (Msep5-HT7L receptor [5]; 5-HT7L, cAMP production, HEK-293 cells, read-out: EC50): 13.9 µM; activation compared with maximum cAMP stimulation by same concentration of 5-HT (Msep5-HT7L receptor [5]; highest concentration 1 mM, Msep5-HT7L): about 69%; efficacy fold lower than 5-HT (5-HT7 receptor [4]): about 2 fold; potency fold lower than 5-HT (5-HT7 receptor [4]): more than 190 fold; activation compared with maximum cAMP stimulation by 5-HT (Msep5-HT7S receptor [6]): about 35%; logEC50 (Mean ± SEM) (Msep5-HT7S receptor [6]; 5-HT7S, cAMP production, HEK-293 cells, given as negative log value): −5.23 ± 0.29; EC50 (Msep5-HT7S receptor [6]; 5-HT7S, cAMP production, HEK-293 cells, read-out: EC50): 5.9 µM; fold higher agonist potency against Msep5-HT7S than Msep5-HT7L (Msep5-HT7S receptor [6]): 2.3 fold
NCCc1ccc(O)c(O)c1 [dopamine, dopamine hydrochloride] | – | – | only 5-HT significantly increased cAMP levels | – | – | – | – | – | – | effect on intracellular cAMP levels (Msep5-HT7S receptor [6]): only 5-HT significantly increased cAMP levels
CCCN(CCC)C1CCc2cccc(O)c2C1 (racemic) [8-OH-DPAT, (±)-8-hydroxy-2-(dipropylamino) tetralin hydrobromide] | – | – | activated | only αm-5-HT significantly increased cAMP levels | – | – | – | – | – | EC50 (Msep5-HT7L receptor [5]; [14]): 10.1 µM; Emax (Msep5-HT7L receptor [5]): < 30%; EC50 (Msep5-HT7L receptor [5]; [15]): 10 µM; fold higher agonist potency against Msep5-HT7L than Msep5-HT7S (Msep5-HT7L receptor [7]): 2.4 fold; efficacy fold lower than 5-HT (5-HT7 receptor [4]): about 2 fold; potency fold lower than 5-HT (5-HT7 receptor [4]): more than 190 fold; EC50 (Msep5-HT7S receptor [6]; [16]): 24.8 µM; Emax (Msep5-HT7S receptor [6]): < 30%; EC50 (Msep5-HT7S receptor [6]; [17]): 24.5 µM
CC1CCN(CC[C@H]2CCCN2S(=O)(=O)c2cccc(O)c2)CC1 [SB-269970, (R)-3-(2-(2-(4-methylpiperidin-1-yl)ethyl)pyrrolidine-1-sulfonyl) phenol] | 33–60% | no significant differences | – | – | 33 to 60% | 67.8 µM | 67.6 µM | 70.4 µM | 70.8 µM | IC50 (5-HT1 receptor): 205 µM; antagonistic effect (5-HT7 receptor [8]): poor antagonistic effect
CSc1ccc2c(c1)C(N1CCN(C)CC1)Cc1ccccc1S2 (centres unmarked) [Methiothepin, methiothepin mesylate] | 33–60% | no significant differences | – | – | 33 to 60% | 62.9 µM | 63.1 µM | 87.2 µM | 87.1 µM | –
O=C(c1ccc(F)cc1)C1CCN(CCn2c(=O)[nH]c3ccccc3c2=O)CC1 [Ketanserin] | 33–60% | higher antagonistic activity | – | – | 33 to 60% | 84.9 µM | 85.1 µM | 46.9 µM | 46.8 µM | fold higher inhibitory potency than against Msep5-HT7L and Msep5-HT7S (5-HT7 receptor [9]): 20- to 50 fold; IC50 (5-HT7 receptor [10]): 1.5 µM; fold higher inhibitory potency than against Msep5-HT7L and Msep5-HT7S (5-HT7 receptor [11]): 20- to 50 fold; IC50 (5-HT7 receptor [4]): 1.95 µM
Nc1ccc(CCN2CCN(c3cccc(C(F)(F)F)c3)CC2)cc1 [PAPP, 1-[(4-aminophenyl)ethyl]-4-[3-(trifluoromethyl)phenyl] piperazine] | – | – | – | – | – | – | – | – | – | effect on larvae [12]: inhibit the growth or kill the larvae
